Measurements: patent US5292729A, “II-bond aromatic vitamin chelates” (Albion International, Inc., priority 1992, dated 1994)

Key:
[1] = 65Zn level in blood of rats after oral gavage, scintillation count; settings: oral 0.03 mg Zn, 15 μcuries 65Zn, mean ± standard deviation
Description: (§1) The chelate thus prepared was diluted such that a 5 μl dose contained about 0.03 mg Zn and 15 μcuries of ^65 Zn activity. This dose, when administered to a standard laboratory rat weighing 150±25 gms, closely approximates the RDA of 15 mg Zn for a human being weighing about 70 kg.
(§2) Ten Sprague Dawley rats, weighing 190±10 grams each were divided into two groups of five rats. Five rats were designated the test group and the other five rats the control group.
(§3) No surgery was performed as all animals were given light doses of nembutal (40 mg/kg) to improve ease of handling and minimize injury during lavage and bloodletting.
Beginning 30 minutes after dosing and continuing at 30 minute intervals up to a period of 3 hours following dosing, 0.1 ml of blood was withdrawn from rats in both the test and control groups. The blood was then analyzed for ^65 Zn by scintillation count.

[2] = 65Zn isotope levels in urine and tissues of sacrificed rats
Description: as §1, §2, §3
The rats used in Example 22 were sacrificed after completion of the testing and the urine, liver, muscle, kidney, brain and spleens from the animals in each grouping were collected for comparative ^65 zinc isotope levels.

## [Cl-].[Cl-].[Zn+2] [ZnCl2]
[1]; 0.5 hrs after dosing
  65Zn in blood: 210 ± 11 CCPM
[1]; 1.0 hrs after dosing
  65Zn in blood: 226 ± 14 CCPM
[1]; 1.5 hrs after dosing
  65Zn in blood: 212 ± 26 CCPM
[1]; 2.5 hrs after dosing
  65Zn in blood: 206 ± 8 CCPM
[1]; 3.0 hrs after dosing
  65Zn in blood: 207 ± 8 CCPM
[2]; brain, after 3 hour test
  65Zn in brain: 0 CCPM
[2]; kidney, after 3 hour test
  65Zn in kidney: 24 CCPM
[2]; liver, after 3 hour test
  65Zn in liver: 50 CCPM
[2]; muscle, after 3 hour test
  65Zn in muscle: 0 CCPM
[2]; spleen, after 3 hour test
  65Zn in spleen: 16 CCPM
[2]; urine
  excretion of zinc compared with the chelated form: excreted more readily
[2]; urine, after 3 hour test
  65Zn in urine: 38 CCPM
